This note sets out measurements from ChEMBL document CHEMBL4507295 (2021).

For test [1], the species on record is Homo sapiens. Kind of test: Calcitonin Gene-Related Peptide CGRP1 Eurofins-Panlabs radioligand binding assay. It is filed as protein-complex assay. The conditions noted are these: Compound concentration 10.0 uM.
The target in test [2] is Beta-3 adrenergic receptor (Homo sapiens) (UniProt P13945). The conditions noted are these: Compound concentration 10.0 uM.
For test [3], the target named is T1, 5-hydroxytryptamine receptor 1A (Homo sapiens) (UniProt P08908).
T1 sequence (whole entry): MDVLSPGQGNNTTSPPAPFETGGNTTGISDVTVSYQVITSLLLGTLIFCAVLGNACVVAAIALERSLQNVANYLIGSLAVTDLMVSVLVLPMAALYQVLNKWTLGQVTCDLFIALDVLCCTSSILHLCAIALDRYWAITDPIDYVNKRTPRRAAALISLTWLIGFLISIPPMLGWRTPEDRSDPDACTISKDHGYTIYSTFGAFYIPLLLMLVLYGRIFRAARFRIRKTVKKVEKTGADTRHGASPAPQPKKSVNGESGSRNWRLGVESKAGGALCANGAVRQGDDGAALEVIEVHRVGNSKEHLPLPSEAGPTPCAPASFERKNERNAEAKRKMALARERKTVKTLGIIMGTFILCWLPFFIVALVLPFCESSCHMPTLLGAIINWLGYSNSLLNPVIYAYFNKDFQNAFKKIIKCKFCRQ
Conditions: Compound concentration 10.0 uM.

For test [4], the target named is T2, Tyrosine-protein phosphatase non-receptor type 2 (Homo sapiens) (UniProt P17706).
T2 sequence (whole entry): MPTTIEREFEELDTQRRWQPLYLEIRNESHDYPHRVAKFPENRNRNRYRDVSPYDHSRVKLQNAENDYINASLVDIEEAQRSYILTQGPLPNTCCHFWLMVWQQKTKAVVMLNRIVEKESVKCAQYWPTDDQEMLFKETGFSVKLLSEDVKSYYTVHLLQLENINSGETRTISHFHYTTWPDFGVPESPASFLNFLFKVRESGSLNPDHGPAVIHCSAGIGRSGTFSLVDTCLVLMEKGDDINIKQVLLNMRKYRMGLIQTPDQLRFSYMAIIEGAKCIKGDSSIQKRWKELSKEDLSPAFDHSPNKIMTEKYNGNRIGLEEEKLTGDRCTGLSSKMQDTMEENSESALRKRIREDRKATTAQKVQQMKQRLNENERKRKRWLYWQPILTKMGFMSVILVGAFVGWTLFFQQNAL
Kind of test: (§1) Protein Tyrosine Phosphatase, PTPN2 (TCPTP) Eurofins-Panlabs enzyme assay. Set-up: substrate with concentration DiFMUP, incubation time 60 min, incubation temperature 37 °C.

For test [5], the target named is Tyrosine-protein phosphatase non-receptor type 2 (Homo sapiens, UniProt P17706). The test is described as §1. Set-up: substrate with concentration DiFMUP, incubation time 60 min, incubation temperature 37 °C.
For test [6], the target named is Delta-type opioid receptor (Homo sapiens) (UniProt P41143). Kind of test: Opiate delta (OP1, DOP) Eurofins-Panlabs radioligand binding assay. The conditions noted are these: Compound concentration 10.0 uM.
Sequence of Delta-type opioid receptor (Homo sapiens) (P41143 whole entry): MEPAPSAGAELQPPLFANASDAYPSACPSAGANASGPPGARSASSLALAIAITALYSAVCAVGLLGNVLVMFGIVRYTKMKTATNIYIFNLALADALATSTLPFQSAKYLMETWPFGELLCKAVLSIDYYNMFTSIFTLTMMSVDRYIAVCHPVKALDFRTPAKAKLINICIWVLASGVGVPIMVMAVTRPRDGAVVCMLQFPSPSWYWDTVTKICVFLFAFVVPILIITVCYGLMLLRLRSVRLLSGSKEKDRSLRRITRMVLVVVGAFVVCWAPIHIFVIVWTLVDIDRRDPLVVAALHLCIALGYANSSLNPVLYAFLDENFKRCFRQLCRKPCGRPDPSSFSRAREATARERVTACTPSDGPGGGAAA
Test [7] concerns the target Muscarinic acetylcholine receptor M3 (Homo sapiens) (UniProt P20309). Conditions: Compound concentration 10.0 uM.
For test [8], the target named is Muscarinic acetylcholine receptor M2 (Homo sapiens) (UniProt P08172). Conditions: Compound concentration 10.0 uM.
Sequence of Muscarinic acetylcholine receptor M2 (Homo sapiens) (P08172 whole entry): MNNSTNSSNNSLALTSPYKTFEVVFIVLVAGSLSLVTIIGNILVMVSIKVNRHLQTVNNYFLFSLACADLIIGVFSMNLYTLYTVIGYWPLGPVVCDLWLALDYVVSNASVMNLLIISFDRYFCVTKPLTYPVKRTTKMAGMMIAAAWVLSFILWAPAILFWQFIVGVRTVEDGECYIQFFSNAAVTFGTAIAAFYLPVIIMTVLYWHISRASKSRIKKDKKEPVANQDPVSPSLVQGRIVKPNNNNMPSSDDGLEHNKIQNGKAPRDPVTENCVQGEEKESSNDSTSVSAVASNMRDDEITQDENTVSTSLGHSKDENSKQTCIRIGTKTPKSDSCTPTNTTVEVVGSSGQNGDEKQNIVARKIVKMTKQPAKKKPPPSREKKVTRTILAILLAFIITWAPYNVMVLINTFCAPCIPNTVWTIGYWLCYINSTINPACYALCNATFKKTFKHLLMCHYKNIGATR
The target of test [9] is D(3) dopamine receptor (Homo sapiens) (UniProt P35462). Conditions: Compound concentration 10.0 uM.
In test [10] the target is Endothelin receptor type B (Homo sapiens) (UniProt P24530). The conditions noted are these: Compound concentration 10.0 uM.
Sequence of Endothelin receptor type B (Homo sapiens) (P24530 whole entry): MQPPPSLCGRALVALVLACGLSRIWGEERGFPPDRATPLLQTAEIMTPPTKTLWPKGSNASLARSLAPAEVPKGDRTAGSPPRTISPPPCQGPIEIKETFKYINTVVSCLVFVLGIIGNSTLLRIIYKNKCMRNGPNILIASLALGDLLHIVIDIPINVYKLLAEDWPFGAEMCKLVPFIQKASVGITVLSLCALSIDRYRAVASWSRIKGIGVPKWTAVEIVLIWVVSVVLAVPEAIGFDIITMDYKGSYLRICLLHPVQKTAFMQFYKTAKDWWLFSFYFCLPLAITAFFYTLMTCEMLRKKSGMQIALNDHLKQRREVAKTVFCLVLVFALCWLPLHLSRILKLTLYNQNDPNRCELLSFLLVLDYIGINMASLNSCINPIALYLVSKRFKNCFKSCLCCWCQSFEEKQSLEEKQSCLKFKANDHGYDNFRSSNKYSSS
In test [11] the target is GABA-A receptor; alpha-5/beta-3/gamma-2 (Homo sapiens) (UniProt P18507+P28472+P31644). Kind of test: GABA-alpha5beta3gamma2 (Muscimol binding) Eurofins-Panlabs radioligand binding assay. It is filed as protein-complex assay. Set-up: ligand concentration 8 nM. Conditions: Compound concentration 10.0 uM.
For test [12], the target named is Substance-P receptor (Homo sapiens) (UniProt P25103). In words: Tachykinin NK1 Eurofins-Panlabs radioligand binding assay. The conditions noted are these: Compound concentration 10.0 uM.
Sequence of Substance-P receptor (Homo sapiens) (P25103 whole entry): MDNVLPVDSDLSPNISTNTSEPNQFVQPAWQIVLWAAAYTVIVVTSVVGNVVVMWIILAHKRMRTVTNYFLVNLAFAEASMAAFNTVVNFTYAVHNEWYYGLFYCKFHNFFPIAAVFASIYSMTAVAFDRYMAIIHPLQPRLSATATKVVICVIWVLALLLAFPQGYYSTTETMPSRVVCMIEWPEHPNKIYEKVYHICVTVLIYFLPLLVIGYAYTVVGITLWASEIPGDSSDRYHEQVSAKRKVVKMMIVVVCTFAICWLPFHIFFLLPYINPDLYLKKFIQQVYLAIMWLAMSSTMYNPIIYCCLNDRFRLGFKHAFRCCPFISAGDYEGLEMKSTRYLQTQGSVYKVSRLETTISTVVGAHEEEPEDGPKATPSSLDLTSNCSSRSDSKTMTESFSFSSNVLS
Test [13] addresses Alpha-1D adrenergic receptor (Homo sapiens) (UniProt P25100). Conditions: Compound concentration 10.0 uM.
The target of test [14] is Melanocortin receptor 4 (Homo sapiens) (UniProt P32245). Kind of test: Inhibition of Melanocortin MC4 at 10 µM in the Eurofins-Panlabs radioligand binding assay (Eurofins_assay_251350). Set-up: ligand concentration 0.02 nM. Conditions: Compound concentration 10.0 uM.
Sequence of Melanocortin receptor 4 (Homo sapiens) (P32245 whole entry): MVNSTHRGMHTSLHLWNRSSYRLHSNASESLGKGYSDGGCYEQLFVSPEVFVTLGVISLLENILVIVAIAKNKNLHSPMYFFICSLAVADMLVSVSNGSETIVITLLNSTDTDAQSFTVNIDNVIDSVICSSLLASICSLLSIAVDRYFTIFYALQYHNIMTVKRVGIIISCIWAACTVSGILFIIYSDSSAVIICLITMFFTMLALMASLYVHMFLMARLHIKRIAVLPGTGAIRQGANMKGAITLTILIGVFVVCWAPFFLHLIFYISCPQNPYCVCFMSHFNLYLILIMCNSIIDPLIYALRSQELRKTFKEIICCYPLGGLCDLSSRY
Test [15] has as its target Endothelin-1 receptor (Homo sapiens) (UniProt P25101). Conditions: Compound concentration 10.0 uM.
Test [16] has as its target Histamine H1 receptor (Homo sapiens) (UniProt P35367). Conditions: Compound concentration 10.0 uM.
In test [17] the target is Prostacyclin receptor (Homo sapiens) (UniProt P43119). In words: Prostanoid IP Eurofins-Panlabs radioligand binding assay. Set-up: ligand concentration 5 nM. Conditions: Compound concentration 10.0 uM.
Test [18] has as its target Prostaglandin E2 receptor EP4 subtype (Homo sapiens) (UniProt P35408). Kind of test: Prostanoid EP4 Eurofins-Panlabs radioligand binding assay. Also on record: ligand concentration 0.5 nM. The conditions noted are these: Compound concentration 10.0 uM.
For test [19], the target named is Histamine H2 receptor (Homo sapiens) (UniProt P25021). Conditions: Compound concentration 10.0 uM.
Test [20] concerns the target Adenosine receptor A3 (Homo sapiens) (UniProt P0DMS8). Conditions: Compound concentration 10.0 uM.
Test [21] is filed under the species Homo sapiens. Conditions: Compound concentration 10.0 uM.
For test [22], the target named is Cysteinyl leukotriene receptor 1 (Homo sapiens) (UniProt Q9Y271). Kind of test: Inhibition of Leukotriene, Cysteinyl CysLT1 at 10 µM in the Eurofins-Panlabs radioligand binding assay (Eurofins_assay_250460). Also on record: ligand concentration 0.3 nM, non-specific ligand with concentration 0.3 µM Leukotriene D4, incubation time 30 min, incubation temperature 25 °C. Conditions: Compound concentration 10.0 uM.

Test [23] has as its target Kappa-type opioid receptor (Homo sapiens) (UniProt P41145). The conditions noted are these: Compound concentration 10.0 uM.
Test [24] concerns the target Tyrosine-protein phosphatase non-receptor type 1 (Homo sapiens) (UniProt P18031). In words: Protein Tyrosine Phosphatase, PTPN1 (PTP1B) Eurofins-Panlabs enzyme assay. Set-up: substrate with concentration. The conditions noted are these: Compound concentration 10.0 uM.
Test [25] has as its target Melatonin receptor (Gallus gallus) (UniProt P49288+P51050+P49285). Kind of test: Melatonin MT, Non-Selective Eurofins-Panlabs radioligand binding assay. It is filed as protein assay. The conditions noted are these: Compound concentration 10.0 uM.
Test [26] deals with 5-hydroxytryptamine receptor 7 (Homo sapiens, UniProt P34969). In words: GPCRScan assay: inhibition of 5-HT7A. Set-up: radioligand conc. used [nm] 5.0 – 6.0, parental cells Stable HEK.
For test [27], the target named is Interstitial collagenase (Homo sapiens) (UniProt P03956). Kind of test: Inhibition of Peptidase, Matrix Metalloproteinase-1 (MMP-1) at 10 µM in the Eurofins-Panlabs enzyme assay (Eurofins_assay_114110). The conditions noted are these: Compound concentration 10.0 uM.
Sequence of Interstitial collagenase (Homo sapiens) (P03956 whole entry): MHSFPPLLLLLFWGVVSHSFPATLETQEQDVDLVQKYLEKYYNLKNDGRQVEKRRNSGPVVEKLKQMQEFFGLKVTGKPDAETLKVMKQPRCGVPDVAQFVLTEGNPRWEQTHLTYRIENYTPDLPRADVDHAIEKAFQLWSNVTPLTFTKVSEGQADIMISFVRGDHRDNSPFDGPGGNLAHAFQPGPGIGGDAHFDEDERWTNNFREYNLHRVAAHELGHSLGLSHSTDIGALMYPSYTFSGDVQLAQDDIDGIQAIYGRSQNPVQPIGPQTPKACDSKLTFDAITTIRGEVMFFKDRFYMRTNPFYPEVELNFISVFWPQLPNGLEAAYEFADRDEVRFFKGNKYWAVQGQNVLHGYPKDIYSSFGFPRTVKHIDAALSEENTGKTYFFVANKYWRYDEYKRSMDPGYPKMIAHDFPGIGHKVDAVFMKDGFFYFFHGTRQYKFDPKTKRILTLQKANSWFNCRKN
Test [28] deals with cGMP-specific 3',5'-cyclic phosphodiesterase (Homo sapiens) (UniProt O76074). The conditions noted are these: Compound concentration 100.0 uM.
For test [29], the species on record is Homo sapiens. In words: Prostanoid, Thromboxane A2 (TP) Eurofins-Panlabs radioligand binding assay. The conditions noted are these: Compound concentration 10.0 uM. Set-up: ligand concentration 5 nM, non-specific ligand with concentration 1 µM SQ-29548, incubation time 30 min, incubation temperature 25 °C.
Test [30] deals with C-C chemokine receptor type 1 (Homo sapiens) (UniProt P32246). Kind of test: Chemokine CCR1 Eurofins-Panlabs radioligand binding assay. Conditions: Compound concentration 10.0 uM.
In test [31] the target is Prostaglandin E2 receptor EP1 subtype (Homo sapiens) (UniProt P34995). Kind of test: Prostanoid EP1 Eurofins-Panlabs radioligand binding assay. Conditions: Compound concentration 10.0 uM.
Test [32] addresses Tyrosine-protein kinase Blk (Homo sapiens) (UniProt P51451). The conditions noted are these: Compound concentration 1000.0 nM.
Test [33] deals with Phosphatidylinositol 4,5-bisphosphate 3-kinase catalytic subunit beta isoform (Homo sapiens) (UniProt P42338). The conditions noted are these: Compound concentration 1000.0 nM.

Sequence of Muscarinic acetylcholine receptor M3 (Homo sapiens) (P20309 whole entry, looked up): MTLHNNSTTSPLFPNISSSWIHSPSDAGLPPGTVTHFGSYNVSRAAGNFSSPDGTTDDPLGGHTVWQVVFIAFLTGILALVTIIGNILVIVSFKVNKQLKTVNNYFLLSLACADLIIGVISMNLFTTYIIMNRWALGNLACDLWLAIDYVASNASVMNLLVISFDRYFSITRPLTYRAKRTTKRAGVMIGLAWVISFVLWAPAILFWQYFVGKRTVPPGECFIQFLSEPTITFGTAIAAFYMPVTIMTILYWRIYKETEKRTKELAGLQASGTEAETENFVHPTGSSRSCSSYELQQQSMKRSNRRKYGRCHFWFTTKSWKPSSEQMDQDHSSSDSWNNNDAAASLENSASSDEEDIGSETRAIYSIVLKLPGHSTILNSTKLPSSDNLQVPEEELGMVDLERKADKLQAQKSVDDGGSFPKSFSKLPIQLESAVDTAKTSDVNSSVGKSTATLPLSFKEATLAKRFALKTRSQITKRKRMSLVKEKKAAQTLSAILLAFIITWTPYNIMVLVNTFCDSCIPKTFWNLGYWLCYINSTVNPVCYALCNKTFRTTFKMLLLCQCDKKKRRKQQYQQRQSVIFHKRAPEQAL
Sequence of Prostaglandin E2 receptor EP4 subtype (Homo sapiens) (P35408 whole entry): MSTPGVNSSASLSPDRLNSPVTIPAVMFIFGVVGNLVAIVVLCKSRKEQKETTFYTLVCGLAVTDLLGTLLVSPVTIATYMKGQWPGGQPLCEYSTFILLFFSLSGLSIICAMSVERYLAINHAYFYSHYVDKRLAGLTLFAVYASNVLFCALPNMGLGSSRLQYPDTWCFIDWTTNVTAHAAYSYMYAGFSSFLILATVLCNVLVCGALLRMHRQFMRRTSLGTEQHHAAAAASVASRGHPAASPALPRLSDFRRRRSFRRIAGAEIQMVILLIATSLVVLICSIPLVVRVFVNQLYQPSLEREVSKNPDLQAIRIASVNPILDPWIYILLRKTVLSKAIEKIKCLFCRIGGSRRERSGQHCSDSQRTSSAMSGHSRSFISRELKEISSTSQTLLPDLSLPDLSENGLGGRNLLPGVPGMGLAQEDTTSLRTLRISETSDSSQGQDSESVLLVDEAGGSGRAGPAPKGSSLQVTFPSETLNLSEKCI
Sequence of Tyrosine-protein kinase Blk (Homo sapiens) (P51451 2-505 limits assumed): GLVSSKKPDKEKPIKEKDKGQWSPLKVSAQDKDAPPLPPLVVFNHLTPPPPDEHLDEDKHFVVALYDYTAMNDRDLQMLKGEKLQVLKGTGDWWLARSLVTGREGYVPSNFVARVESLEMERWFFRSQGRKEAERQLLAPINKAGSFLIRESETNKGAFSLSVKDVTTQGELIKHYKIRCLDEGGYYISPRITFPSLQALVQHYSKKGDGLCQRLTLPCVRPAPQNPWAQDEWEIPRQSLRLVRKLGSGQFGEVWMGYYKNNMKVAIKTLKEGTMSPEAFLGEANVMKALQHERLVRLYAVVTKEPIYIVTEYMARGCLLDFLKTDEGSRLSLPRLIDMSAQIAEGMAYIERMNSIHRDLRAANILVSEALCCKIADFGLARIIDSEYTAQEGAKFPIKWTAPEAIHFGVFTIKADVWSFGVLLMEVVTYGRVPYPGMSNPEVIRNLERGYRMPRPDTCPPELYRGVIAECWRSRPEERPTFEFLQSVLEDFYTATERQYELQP
Sequence of Adenosine receptor A3 (Homo sapiens) (P0DMS8 whole entry): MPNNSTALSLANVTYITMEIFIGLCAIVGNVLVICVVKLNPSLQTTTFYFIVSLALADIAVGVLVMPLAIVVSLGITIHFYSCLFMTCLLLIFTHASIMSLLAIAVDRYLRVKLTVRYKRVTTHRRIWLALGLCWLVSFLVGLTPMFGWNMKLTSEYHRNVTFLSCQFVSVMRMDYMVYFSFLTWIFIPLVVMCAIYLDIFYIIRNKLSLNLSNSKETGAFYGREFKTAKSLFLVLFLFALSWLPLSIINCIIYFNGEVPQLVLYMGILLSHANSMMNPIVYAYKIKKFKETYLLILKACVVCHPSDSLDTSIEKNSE
Sequence of Histamine H1 receptor (Homo sapiens) (P35367 whole entry): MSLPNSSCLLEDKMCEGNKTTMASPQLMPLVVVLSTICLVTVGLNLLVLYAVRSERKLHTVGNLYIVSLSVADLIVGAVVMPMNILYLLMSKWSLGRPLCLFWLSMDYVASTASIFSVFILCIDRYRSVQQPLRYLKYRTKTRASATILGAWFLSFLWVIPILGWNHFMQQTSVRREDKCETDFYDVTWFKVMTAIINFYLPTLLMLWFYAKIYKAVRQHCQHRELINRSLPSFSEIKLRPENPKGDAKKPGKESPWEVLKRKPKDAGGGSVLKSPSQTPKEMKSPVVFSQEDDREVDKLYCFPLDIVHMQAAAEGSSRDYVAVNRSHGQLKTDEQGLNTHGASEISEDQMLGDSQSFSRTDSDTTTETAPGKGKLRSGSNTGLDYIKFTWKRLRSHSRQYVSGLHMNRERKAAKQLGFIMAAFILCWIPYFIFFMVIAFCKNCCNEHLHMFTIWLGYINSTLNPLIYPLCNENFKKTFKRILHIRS

As for `N#CC1(c2ccccn2)CCN(Cc2cc(C(=O)O)c(=O)n3ccccc23)CC1` [MSD-M1PAM], the inhibition – broadly, the relative decrease from the control value, in per cent – in the test filed under Homo sapiens [1] is -6%; in test [2], -5%; in test [3], 2%; in [4] (Compound concentration 0.01 uM) it was -4%; in [4] (Compound concentration 0.1 uM), -5%; in [4] (Compound concentration 1.0 uM) it was 4%. The inhibition in [4] (Compound concentration 10.0 uM) is 50%; in test [6], 19%; in test [7], -6.58%; in [8], 2%; in [9], -7.39%; in test [10], -10%. Also, the inhibition in test [11] is 11%; in [12] it was 0%; in [13], -5.73%; in test [14] it was -1%; in test [15], -1%; in [16] it was 5%. Besides, the inhibition in test [17] is 22%; in test [18], -4%; in [19] it was -3%; in test [20], -3%; in the test listed under Homo sapiens [21], 0%; in test [22] it was -5%. For the same molecule, the inhibition in test [23] was 2%; in test [24] it was 34%; in test [25], -6%; in test [27], 15%; in test [28], 21%; in the test listed under Homo sapiens [29], 21%. The inhibition was 8% in [30] and 14% in test [31]. Further, the half-inhibitory concentration (IC50) (usually the concentration needed to halve the response being measured) in test [5] worked out at 10 µM. In addition, in [26], the Ki (usually the dissociation constant of the complex between target and ligand, obtained from inhibition or displacement) came to 10 µM.

`N#CC1(c2ccccn2)CCN(Cc2cc(C(=O)N3CCCC3)c(=O)n3ccccc23)CC1`: the residual activity (as a rule, what remains of the control signal, in per cent) in [32] was 73%; in test [33] it was 100%.
